Literature values, collected in patent US8945534B2, “Controlled activation of the reuterin-production machinery of Lactobacillus” (priority 2008, dated 2015).

System: Escherichia, Salmonella, Shigella, Proteus, Pseudomonas, Clostridium, Staphylococcus, Streptococcus, and Helicobacter pylori; several fungi and other …
Conditions: species representing all bacterial genera tested thus far; U.S. Pat. Nos. 5,439,678 etc.

Q: For `O=CCCO` [Reuterin, 3-hydroxypropionaldehyde], which “inhibition of growth of microorganisms” value is on record?
A: The value was “capable of inhibiting growth”.
